Assay results from patent publication US8921344B2, “Formulations and uses of 2-hydroxy-5-phenylazobenzoic acid derivatives” (Salix Pharmaceuticals, Inc., priority 2006, dated 2014).

Experiments:
[1] = clinical; set-up: species or system human; conditions: in vivo; for AUClast / Tmax / AUC(0-t): male, po; for AUClast / Tmax / AUC(0-t) / AUClast ratio Treatment B/A / Cmax ratio Treatment B/A: human; for AUC(0-t): AUClast
From the text: Study periods were separated by a minimum of 4 days. […] The standard pharmacokinetic parameters are shown for both dosing conditions in Table 1.
This delay is indicative of a slower transit of the drug through the GI tract.

[2] = cited from earlier work
[3] = cited from earlier work; remark: listed apart in the source
[4] = compared with 5-ASA; cited from earlier work

Row | Compound | AUClast [1] [ng·h/mL] | AUC(0-t) [1] [ng·h/mL] | Change of systemic level as measured by Cmax [1] | AUClast ratio Treatment B/A [1] | Cmax ratio Treatment B/A [1] | also measured
1 | Nc1ccc(C(=O)NCCC(=O)O)cc1 [4-ABA, 4-amino benzoyl-β-alanine] | 302.0 ± 262.07 | 288 ± 158 |  |  |  | Tmax [1]: 24.0 ± 8.51 h; Tmax ([1]; Tmax): 12.7 ± 9.46 h; Absorption of the released carrier component ([2]; released in the colon, largely eliminated in the feces): poorly absorbed
2 | Nc1ccc(O)c(C(=O)O)c1 [5-ASA, 5-aminosalicylic acid, reference compound] | 2096.4 ± 2577.31 | 2590 ± 1460 | significant decreases |  |  | Change of systemic level as measured by AUClast [1]: significant decrease
3 | O=C(O)CCNC(=O)c1ccc(/N=N/c2ccc(O)c(C(=O)O)c2)cc1 [Balsalazide, reference compound] |  |  |  | 1.146 | 0.791 | Part of the prodrug that reaches the colon ([2]; taken orally): 99%
4 | O=C(O)CCNC(=O)c1ccc(/N=N/c2ccc(O)c(C(=O)O)c2)cc1 [Disodium balsalazide] |  |  |  |  |  | Water solubility [3]: highly water-soluble
5 | CC(=O)Nc1ccc(O)c(C(=O)O)c1 [N-Ac-5-ASA, N-acetyl-5-ASA] |  |  | significant decreases | 0.819 | 0.639 | Part of the oral dose measured in the blood / systemically absorbed ([2]; after oral balsalazide): ~12 % of the oral dose; Anti-inflammatory activity in the colon [4]: lower anti-inflammatory activity
